Results on ten compounds are retold here after the SangsterLogP compilation.

For orientation: logP means a log measure of how a compound divides between an organic and an aqueous phase. High values mean a more lipophilic compound, low ones a more hydrophilic compound.

The first data set can be described thus: from Caliendo, G., Novellino, E., Santagada, V., Silipo, C., & Vittoria, A. (1991). Structure-activity relationships in a set of antimicrobial. In QSAR, Rational Approaches to the Design of Bioactive ….
The compound `Cn1nc2ccc(NC(=O)c3ccc(Cl)cc3)cc2n1` registered a logP of 3.13.

Turning to `COc1cc(C(=O)Nc2ccc3nn(C)nc3c2)cc(OC)c1OC`, the logP was found to be 2.38.

Turning to `Cn1nc2ccc(NC(=O)c3ccc([N+](=O)[O-])cc3)cc2n1`, the logP is 2.53.

With `Cn1nc2ccc(NC(=O)c3ccccc3)cc2n1`, the logP amounted to 2.44.

Consider `O=C(Nc1ccc2nn(C3CCCCC3)nc2c1)c1ccc([N+](=O)[O-])cc1`, for which the logP was 4.57.

For `O=C(Nc1ccc2nn(C3CCCCC3)nc2c1)c1ccccc1`, the logP is 4.45.

`O=C(Nc1ccc2nn(C3CCCCC3)nc2c1)c1ccc(Cl)c(Cl)c1` yielded a logP of 5.85.

`O=C(Nc1ccc2nn(C3CCCCC3)nc2c1)C(Cl)Cl` returned a logP of 3.87.

Compound `Cn1nc2ccc(NC(=O)CCl)cc2n1` yielded a logP of 1.22.

Test in another data set: not given
`COc1cc(C(=O)Nc2ccc3nn(C4CCCCC4)nc3c2)cc(OC)c1OC` registered a logP of 4.45.
